Measurements as given in US7807712B2, “Oxy substituted chalcones as antihyperglycemic and antidyslipidemic agents” (priority 2004, dated 2010).
Where two headings read alike, the source gives them in different places.

Experiments:
[1] = system: sucrose loaded rats; assay: Sucrose loaded rat model (SLM), antihyperglycemic activity; type: in vivo, rat (Charles Foster/Wistar); settings: 100 mg/kg oral, sucrose load 10.0 g/kg, AUC vs control, 30-120 min; for inhibition in vivo at 100 mg/kg: Rattus norvegicus, 2 h, read-out: % Fall in blood glucose levels SLM
Description: Male albino rats of Charles Foster/Wistar strain of average body weight 160±20 g were selected for this study. The blood glucose level of each animal was checked by glucometer using glucostrips (Boehringer Mannheim) after 16 h starvation. Animals showing blood glucose levels between 3.33 to 4.44 mM (60 to 80 mg/dl) were divided into groups of five to six animals in each. Animals of experimental group were administered suspension of the desired synthetic compound orally (made in 1.0% gum acacia) at a dose of 100-mg/kg-body weight. Animals of control group were given an equal amount of 1.0% gum acacia. A sucrose load (10.0 g/kg) was given to each animal orally exactly after 30 min post administration of the test sample/vehicle. Blood glucose profile of each rat was again determined at 30, 60, 90 and 120 min post administration of sucrose by glucometer. Food but not water was withheld from the cages during the course of experimentation. Quantitative glucose tolerance of each animal was calculated by Area Under Curve (AUC) method (Prism Software). Comparing the AUC of experimental and control groups determined the percentage antihyperglycemic activity. Statistical comparison was made by Dunnett's test.

[2] = system: triton WR-1339 induced hyperlipidemic rats; assay: Triton model, antidyslipidemic activity; type: in vivo, rat (Charles foster); settings: 100 mg/kg oral; for inhibition in vivo at 100 mg/kg: Rattus norvegicus
Description: Male Charles foster rats weighing 200-225 g were divided into control, hyperlipidemic and hyperlipidemic plus drug treated groups containing six animals in each group. Hyperlipidemia was induced by administration of triton WR-1339 (200 mg/kg i.p.). All animals were maintained on a special pellet diet and water ad libitum. Compounds and standard drug were macerated with 0.2% aqueous gum acacia suspension. The suspension was fed orally at the dose of 100 mg/kg simultaneously with triton in drug treated group. The animals of control group received the same amount of gum acacia by similar route of administration. At the end of the experiment, after 18 h, blood was withdrawn from retro orbital plexus and plasma was used for the assay of total cholesterol, phospholipid and triglycerides.
Cholesterol was estimated using the kit provided by Roche Diagnostics. Cholesterol esters are enzymatically hydrolyzed by cholesterol esterase (CE) to cholesterol and free fatty acids. Free cholesterol, including that originally present, is then oxidized by cholesterol oxidase (CO) to cholest-4-en-3-one and hydrogen peroxide. The hydrogen peroxide combines with hydroxy benzoic acid (HBA) and 4-aminoantipyrine (4AAA) in the presence of peroxidase (POD) to form a chromophore (quinoneimine dye), which may be quantitated at 500-505 nm. The intensity of red colour formed is directly proportional to the concentration of total cholesterol in the specimen and measured spectrophotometrically (Searcy, C. L. Diagnostic Biochemistry, 1969, McGraw Hill, New York; Ellefson, R. D.; Caraway, W. T. Fundamentals of clinical chemistry, 1976, Ed Tietz N W, 506-515.)
Triglycerides were estimated using the kit provided by Roche Diagnostics. Lipoprotein lipase hydrolyses triglycerides to yield glycerol and fatty acids. Glycerol kinase converts glycerol to glycerol-3-phosphate, which is oxidized by glycerol phosphate oxidase to dihydroxy acetone phosphate and hydrogen peroxide. In the presence of peroxidase, hydrogen peroxide oxidatively couples with 4-aminoantipyrine and 4-chloro phenol to produce red quinonimine dye. The intensity of red colour formed is directly proportional to the concentration of triglycerides in the specimen and is measured by photometrically (Wahlefeld, A. W.; Bergmeyer, H. U. Ed. Methods of enzymatic analysis, 2nd English edition, New York, N.Y., Academic press inc, 1831-1840.).
Serum (0.2 mL) and perchloric acid (1.0 mL) was digested at 180° C. for 1-1.5 h till the solution became colorless. The liberated inorganic phosphate (Pi) was measured by the method of Fiske and Subbarow (Fiske, C. H.; Subbarow, V. J. Biol. Chem. 1925, 66, 375.). 1 mL of 2.5% ammonium molybdate (prepared in 5 N sulphuric acid) and 0.5 mL reducing agent (4-amino naphthol sulphonic acid, 0.2%), sodium metabisulphite (2.4% w/v in distilled water) was added to the above tubes and mixed well. The reaction mixture was […] with 2.5 mL of triple distilled water and kept at 60° C. in water bath for 20 min. For standard, an appropriate amount of potassium dihydrogen phosphate dissolved in triple distilled water containing 2-10 μg phosphorus (Pi) was run simultaneously with the experiment tubes. The optical density of the blue colour was recorded at 620 nm against reagent blank. The values of Pi were converted into phospholipid by multiplying with 25 (a constant calibrated from Pi value of lecithin).

[3] = system: streptozotocin-induced diabetic rats; assay: Sucrose-challenged streptozotocin-induced diabetic rats (STZ-S), antihyperglycemic activity; type: in vivo, rat (Sprague Dawley); settings: 100 mg/kg oral, sucrose load 2.5 g/kg, AUC vs control
Description: Male albino rats of Sprague Dawley strain of body weight […] were selected for this study. Streptozotocin (Sigma, USA) was dissolved in 100 mM citrate buffer pH 4.5 and calculated amount of the fresh solution was injected to overnight fasted rats (45 mg/kg) intraperitoneally. Blood glucose level was checked 48 h later by glucostrips and animals showing blood glucose values between 144 to 270 mg/dl (8 to 15 mM) were included in the experiment and termed diabetic. The diabetic animals were divided into groups consisting of five to six animals in each group. Animals of experimental groups were administered suspension of the desired test samples orally (made in 1.0% gum acacia) at a dose of 100-mg/kg-body weight. Animals of control group were given an equal amount of 1.0% gum acacia. A sucrose load of 2.5-g/kg body weight was given after 30 minutes of compound administration. After 30 minutes of post sucrose load blood glucose level was again checked by glucostrips at 30, 60, 90, 120, 180, 240, 300 min and at 24 h, respectively. Animals not found diabetic after 24 hours post treatment of the test sample were not considered and omitted from the calculations and termed as non-responders. […] Food but not water was withheld from the cages during the experimentation. Comparing the AUC of experimental and control groups determined the percent antihyperglycemic activity. Statistical comparison between groups was made by Student's ‘t’ test.

[4] = plasma total cholesterol after 18 h
[5] = plasma triglycerides after 18 h
[6] = plasma phospholipid after 18 h, read-out: % Fall in lipid levels (Triton model) PL
[7] = plasma total cholesterol after 18 h, read-out: % Fall in lipid levels (Triton model) TC
[8] = plasma triglycerides after 18 h, read-out: % Fall in lipid levels (Triton model) TG

In the case of `COc1ccc(C=CC(=O)c2cccc(OCCCCOc3ccc(C=C4SC(=O)NC4=O)cc3)c2)cc1` [Compound 43, 4-Methoxy-3′-{4-[4-(thiazolidin-2,4-dione-5-ylidinemethyl)-phenoxy]-butoxy}-chalcone], the “% Fall in blood glucose levels SLM” value [1] is reported as “NIL”, the “% Fall in lipid levels (Triton model) PL” value ([2]; plasma phospholipid after 18 h) is reported as 14% and the “% Fall in lipid levels (Triton model) TC” value [2, 4] is reported as 04%. For the same compound, the “% Fall in lipid levels (Triton model) TG” value [2, 5] was 31%.
With `COc1ccc(/C=C/C(=O)c2ccc(OCC(O)CNCCc3ccc(OC)c(OC)c3)cc2)cc1` (stereo not shown) [Compound 25, 4′-[3-{2-(3,4-Dimethoxyphenyl)-ethylamino}-2-hydroxy-propoxy]-4-methoxy-chalcone] the “% Fall in blood glucose levels SLM” value [1] was “NIL”, the melting point was 120 to 121 °C and the inhibition in vivo at 100 mg/kg [2, 6] was 10%. It also gave an inhibition in vivo at 100 mg/kg [2, 7] of 4% and an inhibition in vivo at 100 mg/kg [2, 8] of 33%.
`COc1ccc(/C=C/C(=O)c2ccc(OCC(O)CNC(C)C)cc2)cc1` (stereo not shown) [Compound 23, 4′-[2-Hydroxy-3-iso-propylamino-propoxy]-4-methoxy-chalcone] showed an inhibition in vivo at 100 mg/kg [1] of 1.41%, a melting point of 105 to 106 °C and an inhibition in vivo at 100 mg/kg [2, 6] of 12%. The inhibition in vivo at 100 mg/kg [2, 7] was 17% and the inhibition in vivo at 100 mg/kg [2, 8] was 22%.
In the case of `COc1ccc(/C=C/C(=O)c2ccc(OCC(O)CNC(C)(C)C)cc2)cc1OC` (stereo not shown) [Compound 19, 4′-[3-tert-Butylamino-2-hydroxy-propoxy]-3,4-dimethoxy-chalcone], the inhibition in vivo at 100 mg/kg [1] is reported as 11.2%, the “% Fall in blood glucose levels STZ-S 5 h” value [3] is reported as “NIL” and the “% Fall in blood glucose levels STZ-S 24 h” value [3] is reported as “NIL”. The melting point was 62 to 64 °C, the inhibition in vivo at 100 mg/kg [2, 6] was 22% and the inhibition in vivo at 100 mg/kg [2, 7] was 21%. It also gave an inhibition in vivo at 100 mg/kg [2, 8] of 19%.
For `CC(C)CNCC(O)COc1ccc(C(=O)/C=C/c2ccc3c(c2)OCO3)cc1` (stereo not shown) [Compound 35, 4′-[3-iso-Butylamino-2-hydroxy-propoxy]-3,4-methylenedioxy-chalcone], the inhibition in vivo at 100 mg/kg [1] was 23.8%, the “% Fall in blood glucose levels STZ-S 24 h” value [3] was 11.6% and the melting point was 122 to 123 °C. It also gave an inhibition in vivo at 100 mg/kg [2, 6] of 9%, an inhibition in vivo at 100 mg/kg [2, 7] of 13% and an inhibition in vivo at 100 mg/kg [2, 8] of 13%.
Compound `CNCC(O)COc1ccc(C(=O)/C=C/c2ccc(OC)cc2)cc1` (stereo not shown) [Compound 26, 4′-[2-Hydroxy-3-methylamino-propoxy]-4-methoxy-chalcone] has a melting point of 114 to 115 °C, an inhibition in vivo at 100 mg/kg [2, 6] of 28% and an inhibition in vivo at 100 mg/kg [2, 7] of 37%. For the same compound, the inhibition in vivo at 100 mg/kg [2, 8] was 39%.
`COc1ccc(/C=C/C(=O)c2ccc(OCC(O)CNCC(C)C)cc2)cc1` (stereo not shown) [Compound 21, 4′-[3-iso-Butylamino-2-hydroxy-propoxy]-4-methoxy-chalcone] showed an inhibition in vivo at 100 mg/kg [1] of 5.67%, a melting point of 76 to 77 °C and an inhibition in vivo at 100 mg/kg [2, 6] of 14%. For the same compound, the inhibition in vivo at 100 mg/kg [2, 7] was 5% and the inhibition in vivo at 100 mg/kg [2, 8] was 12%.
For `COc1ccc(/C=C/C(=O)c2ccccc2OCC(O)CNC(C)C)cc1` (stereo not shown) [Compound 32, 2′-[2-Hydroxy-3-iso-propylamino-propoxy]-4-methoxy-chalcone], the inhibition in vivo at 100 mg/kg [1] was 47%, the “% Fall in blood glucose levels STZ-S 24 h” value [3] was 2.77% and the melting point was 88 to 89 °C. It also gave an inhibition in vivo at 100 mg/kg [2, 6] of 15%, an inhibition in vivo at 100 mg/kg [2, 7] of 22% and an inhibition in vivo at 100 mg/kg [2, 8] of 29%.
In the case of `COc1ccc(/C=C/C(=O)c2cccc(OCC(O)CNC(C)(C)C)c2)cc1` (stereo not shown) [Compound 30, 3′-[3-tert-Butylamino-2-hydroxy-propoxy]-4-methoxy-chalcone], the inhibition in vivo at 100 mg/kg [1] is reported as 20%, the “% Fall in blood glucose levels STZ-S 24 h” value [3] is reported as 11.3% and the melting point is reported as 83 to 84 °C. It also gave an inhibition in vivo at 100 mg/kg [2, 6] of 25%, an inhibition in vivo at 100 mg/kg [2, 7] of 27% and an inhibition in vivo at 100 mg/kg [2, 8] of 30%.
With `COc1ccc(/C=C/C(=O)c2ccc(OCC(O)CNC(C)(C)C)cc2)cc1` (stereo not shown) [Compound 22, 4′-[3-tert-Butylamino-2-hydroxy-propoxy]-4-methoxy-chalcone] the inhibition in vivo at 100 mg/kg [1] was 11.8%, the “% Fall in blood glucose levels STZ-S 5 h” value [3] was “NIL” and the “% Fall in blood glucose levels STZ-S 24 h” value [3] was “NIL”. For the same compound, the melting point was 70 to 71 °C, the inhibition in vivo at 100 mg/kg [2, 6] was 11% and the inhibition in vivo at 100 mg/kg [2, 7] was 16%. The inhibition in vivo at 100 mg/kg [2, 8] was 21%.
For `O=C1NC(=O)C(=Cc2ccc(OCCCCOc3cccc(C(=O)C=Cc4ccc5c(c4)OCO5)c3)cc2)S1` [Compound 45, 3,4-Methylenedioxy-3′-{4-[4-(thiazolidin-2,4-dione-5-ylidinemethyl)-phenoxy]-butoxy}-chalcone], the “% Fall in blood glucose levels SLM” value [1] was 0.13%, the “% Fall in lipid levels (Triton model) PL” value ([2]; plasma phospholipid after 18 h) was 21% and the “% Fall in lipid levels (Triton model) TC” value [2, 4] was 23%. For the same compound, the “% Fall in lipid levels (Triton model) TG” value [2, 5] was 14%.
In the case of `O=C(/C=C/c1ccc2c(c1)OCO2)c1ccc(OCC(O)CN2CCN(c3ccccc3)CC2)cc1` (stereo not shown) [Compound 33, 4′-[2-Hydroxy-3-(4-phenylpiperazin-1-yl)-propoxy]-3,4-methylenedioxy-chalcone], the inhibition in vivo at 100 mg/kg [1] is reported as 5.03%, the melting point is reported as 153 to 154 °C and the inhibition in vivo at 100 mg/kg [2, 6] is reported as 21%. For the same compound, the inhibition in vivo at 100 mg/kg [2, 7] was 22% and the inhibition in vivo at 100 mg/kg [2, 8] was 16%.
With `COc1ccc(C=CC(=O)c2cccc(OCCCCCOc3ccc(C=C4SC(=O)NC4=O)cc3)c2)cc1` [Compound 44, 4-Methoxy-3′-{5-[4-(thiazolidin-2,4-dione-5-ylidinemethyl)-phenoxy]-pentyloxy}-chalcone] the “% Fall in blood glucose levels SLM” value [1] was “NIL”, the “% Fall in lipid levels (Triton model) PL” value ([2]; plasma phospholipid after 18 h) was 13% and the “% Fall in lipid levels (Triton model) TC” value [2, 4] was 06%. For the same compound, the “% Fall in lipid levels (Triton model) TG” value [2, 5] was 19%.
With `COc1ccc(/C=C/C(=O)c2cccc(OCC(O)CN3CCN(c4ccccc4)CC3)c2)cc1` (stereo not shown) [Compound 28, 3′-[2-Hydroxy-3-(4-phenylpiperazin-1-yl)-propoxy]-4-methoxy-chalcone] the inhibition in vivo at 100 mg/kg [1] was 4.41%, the melting point was 153 to 154 °C and the inhibition in vivo at 100 mg/kg [2, 6] was 26%. The inhibition in vivo at 100 mg/kg [2, 7] was 40% and the inhibition in vivo at 100 mg/kg [2, 8] was 17%.
